Columns and labels:
[1] = Photochromic response of polymeric test squares on an optical bench; type: physicochemical; details: for ΔOD@ SATURATION: UV exposure continued for 20 minutes; for ΔOD@ SATURATION / ΔOD/MIN SENSITIVITY: test squares, 75°F (23.9°C); for ΔOD/MIN SENSITIVITY: measured over the first five (5) seconds of UV exposure, expressed on a per minute basis; for Bleach (T1/2): time for absorbance of the activated form in the test squares to reach one half the highest absorbance at room temperature (75°F, 23.9°C) after removal of activating light
Procedure: Testing was done with the photochromic naphthopyrans of the Examples incorporated into polymeric samples by the following method. The quantity of naphthopyran calculated to yield a 1.5 times 10^-3 molal solution was added to a flask containing 50 grams of a monomer blend of 4 parts ethoxylated bisphenol A dimethacrylate (BPA 2EO DMA), 1 part poly(ethylene glycol) 600 dimethacrylate, and 0.033 weight percent 2,2'-azobis(2-methyl propionitrile) (AIBN). The naphthopyran was dissolved into the monomer blend by stirring and gentle heating, if necessary. After a clear solution was obtained, it was poured into a flat sheet mold having the interior dimensions of 2.2 mm x 6 inches (15.24 cm) x 6 inches (15.24 cm). The mold was sealed and placed in a horizontal air flow, programmable oven set to increase the temperature from 40°C. to 95°C. over a 5 hour interval, hold the temperature at 95°C. for 3 hours and then lower it to 60°C. for at least 2 hours before the end of the curing cycle. After the mold was opened, the polymer sheet was cut using a diamond blade saw into 2 inch (5.1 centimeters) test squares.
The photochromic test squares prepared in Part A were tested for photochromic response rates on an optical bench. Prior to testing on the optical bench, the photochromic test squares were exposed to 365 nanometer ultraviolet light for about 15 minutes to activate the photochromic compounds and then placed into a 76°C oven for about 15 minutes to bleach or inactivate the photochromic compounds. The test squares were then cooled to room temperature, exposed to fluorescent room lighting for at least 2 hours and then kept covered for at least 2 hours prior to testing on an optical bench maintained at 75°F (23.9°C). The bench was fitted with a 150 watt Xenon arc lamp, a remote controlled shutter, a copper sulfate bath acting as a heat sink for the arc lamp, a Schott WG-320 nm cut-off filter which removes short wavelength radiation; neutral density filter(s) and a sample holder in which the square to be tested was inserted. A collimated beam of light from a tungsten lamp was passed through the square at a small angle normal to the square. After passing through the square, the light from the tungsten lamp was directed through a photopic filter attached to a detector. The photopic filter passes wavelengths such that the detector mimics the response of the human eye. The output signals from the detector(s) were processed by a radiometer.
Change in optical density (ΔOD) was determined by inserting a test square in the bleached state into the sample holder, adjusting the transmittance scale to 100%, opening the shutter from the Xenon lamp to provide ultraviolet radiation to change the test square from the bleached state to an activated (i.e., darkened) state, measuring the transmittance in the activated state, and calculating the change in optical density according to the formula A OD=log(100/%Ta) where %Ta is the percent transmittance in the activated state and the logarithm is to the base 10.
(§1) The Δ OD/Min, which represents the sensitivity of the photochromic compound's response to UV light, was measured over the first five (5) seconds of UV exposure, then expressed on a per minute basis. The saturation optical density (OD) was taken under identical conditions as the A OD/Min, except UV exposure was continued for 20 minutes for the examples in Table 1. The lambda max reported in Table 1 is the wavelength in the visible spectrum at which the maximum absorption of the activated (colored) form of the photochromic compound in a diethylene glycol bis(allyl carbonate) composition occurs. The Bleach Rate (T 1/2) is the time interval in seconds for the absorbance of the activated form of the naphthopyran in the test squares to reach one half the highest absorbance at room temperature (75°F, 23.9°C) after removal of the source of activating light.

[2] = Lambda max of the activated (colored) form in a diethylene glycol bis(allyl carbonate) composition; type: physicochemical; details: wavelength in the visible spectrum of maximum absorption of the activated (colored) form in a diethylene glycol bis(allyl carbonate) composition
Procedure: as §1

SMILES | ΔOD@ SATURATION [1] | ΔOD/MIN SENSITIVITY [1] | LAMBDA MAX (VISIBLE) [2] [nm] | Bleach (T1/2) [1] [min]
Oc1c(Sc2ccccc2)c2c(c3ccccc13)OC1(C=C2)C2CC3CC(C2)CC1C3 (stereo not drawn) [Example 7, 2,2'-spiroadamantylene-5-phenylthio-6-hydroxy-2H-naphtho[1,2-b]pyran] | 0.47 | 0.15 | 462 | –
COc1ccc(C2(c3ccc(OC)cc3)C=Cc3c(-c4cccn4C)c(OC(C)=O)c4ccccc4c3O2)cc1 [Example 1, 2,2-bis(4-methoxyphenyl)-5-(N-methylpyrrol-2-yl)-6-acetoxy-2H-naphtho[1,2-b]pyran] | 0.25 | 0.16 | 513 | 1.23
COc1ccc(C2(c3ccc(OC)cc3)C=Cc3c(C(O)(c4ccccc4)c4ccccc4)c(O)c4ccccc4c3O2)cc1 [Example 10, 2,2-bis(4-methoxyphenyl)-5-diphenylmethylol-6-hydroxy-2H-naphtho[1,2-b]pyran] | 0.32 | 0.05 | 482 | –
COc1ccc(C2(c3ccc(OC)cc3)C=Cc3c(-c4ccc(OC)cc4OC)c(OC(C)=O)c4ccccc4c3O2)cc1 [Example 2, 2,2-bis(4-methoxyphenyl)-5-(2,4-dimethoxyphenyl)-6-acetoxy-2H-naphtho[1,2-b]pyran] | 0.55 | 0.15 | 511 | 4.13
COc1ccc(C2(c3ccc(OC)cc3)C=Cc3c(C)c(OC(C)=O)c4ccccc4c3O2)cc1 [Example 6, 2,2-bis(4-methoxyphenyl)-5-methyl-6-acetoxy-2H-naphtho[1,2-b]pyran] | 0.37 | 0.14 | 506 | 2
COc1ccc(C2(c3ccc(OC)cc3)C=Cc3c(Sc4ccccc4)c(O)c4ccccc4c3O2)cc1 [Example 3, 2,2-bis(4-methoxyphenyl)-5-phenylthio-6-hydroxy-2H-naphtho[1,2-b]pyran] | 1.76 | 0.34 | 516 | >10
COc1ccc(C2(c3ccc(OC)cc3)C=Cc3c(Cl)c(OC(C)=O)c4ccccc4c3O2)cc1 [Example 5, 2,2-bis(4-methoxyphenyl)-5-chloro-6-acetoxy-2H-naphtho[1,2-b]pyran] | 0.07 | 0.08 | 462 | 0.9
COc1c(C)c2c(c3ccccc13)OC1(C=C2)C2CC3CC(C2)CC1C3 (stereo not drawn) [Example 9, 2,2'-spiroadamantylene-5-methyl-6-methoxy-2H-naphtho[1,2-b]pyran] | 0.17 | 0.12 | 462 | –
CC(=O)Oc1c(Sc2ccccc2)c2c(c3ccccc13)OC1(C=C2)C2CC3CC(C2)CC1C3 (stereo not drawn) [Example 8, 2,2'-spiroadamantylene-5-phenylthio-6-acetoxy-2H-naphtho[1,2-b]pyran] | 0.04 | 0.10 | 459 | –
COc1ccc(C2(c3ccc(OC)cc3)C=Cc3c(Sc4ccccc4)c(OC(C)=O)c4ccccc4c3O2)cc1 [Example 4, 2,2-bis(4-methoxyphenyl)-5-phenylthio-6-acetoxy-2H-naphtho[1,2-b]pyran] | 0.23 | 0.22 | 516 | 0.7
